Assay results taken from ChEMBL document CHEMBL5046315, “CRCM5484: A BET-BDII Selective Compound with Differential Anti-leukemic Drug Modulation” (J Med Chem, 2022).
Calls of active or inactive are those of the source.

Experiments:
[1] = target: Bromodomain-containing protein 2 (Homo sapiens, UniProt P25440); assay: Inhibition of human partial length BRD2-BD2 (E348 to D455 residues) expressed in bacterial system at 1 uM by BROMOscan method relative to control
MOLM-14 [2] = assay: Downregulation of Myc expression in human MOLM-14 cells incubated for 2 hrs by RT-PCR analysis; assay type: functional, cell-based; settings: dose 5.0 µM
[3] = test system: Acute myeloid leukemic cell; assay: Potentiation of vorinostat-induced antileukemic activity against patient derived mouse xenografted acute myeloid leukemic cells assessed as cell viability at 0.16 to 10 uM in absence of bone-marrow derived stromal cell-conditioned medium measured after 72 to 144 hrs by cell-titre glo luminescent assay; assay type: functional, cell-based; settings: Homo sapiens, dose 0.16-10 µM, time lower […], time upper 144.0 hrs
CCRF-CEM [4] = assay: Potentiation of alisertib-induced antileukemic activity against human CCRF-CEM cells at 4.3 uM in presence of bone-marrow derived stromal cell-conditioned medium; assay type: functional, cell-based
CCRF-CEM [5] = assay: Potentiation of bortezomib-induced antileukemic activity against human CCRF-CEM cells at 4.3 uM in presence of bone-marrow derived stromal cell-conditioned medium; assay type: functional, cell-based
CCRF-CEM [6] = assay: Potentiation of erlotinib-induced antileukemic activity against human CCRF-CEM cells at 4.3 uM in presence of bone-marrow derived stromal cell-conditioned medium; assay type: functional, cell-based
CCRF-CEM [7] = assay: Potentiation of MK2206-induced antileukemic activity against human CCRF-CEM cells at 4.3 uM in presence of bone-marrow derived stromal cell-conditioned medium; assay type: functional, cell-based
CCRF-CEM [8] = assay: Potentiation of niotinib-induced antileukemic activity against human CCRF-CEM cells at 4.3 uM in presence of bone-marrow derived stromal cell-conditioned medium; assay type: functional, cell-based
CCRF-CEM [9] = assay: Potentiation of palbociclib-induced antileukemic activity against human CCRF-CEM cells at 4.3 uM in presence of bone-marrow derived stromal cell-conditioned medium; assay type: functional, cell-based
CCRF-CEM [10] = assay: Potentiation of quizartinib-induced antileukemic activity against human CCRF-CEM cells at 4.3 uM in presence of bone-marrow derived stromal cell-conditioned medium; assay type: functional, cell-based
CCRF-CEM [11] = assay: Potentiation of SGI-1027-induced antileukemic activity against human CCRF-CEM cells at 4.3 uM in presence of bone-marrow derived stromal cell-conditioned medium; assay type: functional, cell-based
CCRF-CEM [12] = assay: Potentiation of vorinostat-induced antileukemic activity against human CCRF-CEM cells at 4.3 uM in presence of bone-marrow derived stromal cell-conditioned medium; assay type: functional, cell-based
U-937 [13] = assay: Potentiation of AraC-induced antileukemic activity against human U-937 cells at 4.3 uM in presence of bone-marrow derived stromal cell-conditioned medium; assay type: functional, cell-based
U-937 [14] = assay: Potentiation of asparaginase-induced antileukemic activity against human U-937 cells at 4.3 uM in presence of bone-marrow derived stromal cell-conditioned medium; assay type: functional, cell-based
U-937 [15] = assay: Potentiation of AT9283-induced antileukemic activity against human U-937 cells at 4.3 uM in presence of bone-marrow derived stromal cell-conditioned medium; assay type: functional, cell-based
U-937 [16] = assay: Potentiation of birinapant-induced antileukemic activity against human U-937 cells at 4.3 uM in presence of bone-marrow derived stromal cell-conditioned medium; assay type: functional, cell-based
U-937 [17] = assay: Potentiation of bortezomib-induced antileukemic activity against human U-937 cells at 4.3 uM in presence of bone-marrow derived stromal cell-conditioned medium; assay type: functional, cell-based
U-937 [18] = assay: Potentiation of bosutinib-induced antileukemic activity against human U-937 cells at 4.3 uM in presence of bone-marrow derived stromal cell-conditioned medium; assay type: functional, cell-based
U-937 [19] = assay: Potentiation of EPZ5676-induced antileukemic activity against human U-937 cells at 4.3 uM in presence of bone-marrow derived stromal cell-conditioned medium; assay type: functional, cell-based
U-937 [20] = assay: Potentiation of hydroxychloroquine-induced antileukemic activity against human U-937 cells at 4.3 uM in presence of bone-marrow derived stromal cell-conditioned medium; assay type: functional, cell-based
U-937 [21] = assay: Potentiation of idelalisib-induced antileukemic activity against human U-937 cells at 4.3 uM in presence of bone-marrow derived stromal cell-conditioned medium; assay type: functional, cell-based
U-937 [22] = assay: Potentiation of olaparid-induced antileukemic activity against human U-937 cells at 4.3 uM in presence of bone-marrow derived stromal cell-conditioned medium; assay type: functional, cell-based
U-937 [23] = assay: Potentiation of ruxolitinib-induced antileukemic activity against human U-937 cells at 4.3 uM in presence of bone-marrow derived stromal cell-conditioned medium; assay type: functional, cell-based
U-937 [24] = assay: Potentiation of SGI-1027-induced antileukemic activity against human U-937 cells at 4.3 uM in presence of bone-marrow derived stromal cell-conditioned medium; assay type: functional, cell-based
U-937 [25] = assay: Potentiation of tretinoin-induced antileukemic activity against human U-937 cells at 4.3 uM in presence of bone-marrow derived stromal cell-conditioned medium; assay type: functional, cell-based
MOLM-14 [26] = assay: Potentiation of 17AAG-induced antileukemic activity against human MOLM-14 cells at 4.3 uM in presence of bone-marrow derived stromal cell-conditioned medium; assay type: functional, cell-based
MOLM-14 [27] = assay: Potentiation of daunorubicine-induced antileukemic activity against human MOLM-14 cells at 4.3 uM in presence of bone-marrow derived stromal cell-conditioned medium; assay type: functional, cell-based
MOLM-14 [28] = assay: Potentiation of dexamethasone-induced antileukemic activity against human MOLM-14 cells at 4.3 uM in presence of bone-marrow derived stromal cell-conditioned medium; assay type: functional, cell-based
MOLM-14 [29] = assay: Potentiation of entinostat-induced antileukemic activity against human MOLM-14 cells at 4.3 uM in presence of bone-marrow derived stromal cell-conditioned medium; assay type: functional, cell-based
MOLM-14 [30] = assay: Potentiation of gefitinib-induced antileukemic activity against human MOLM-14 cells at 4.3 uM in presence of bone-marrow derived stromal cell-conditioned medium; assay type: functional, cell-based
MOLM-14 [31] = assay: Potentiation of GSK126-induced antileukemic activity against human MOLM-14 cells at 4.3 uM in presence of bone-marrow derived stromal cell-conditioned medium; assay type: functional, cell-based
MOLM-14 [32] = assay: Potentiation of GSK2879552-induced antileukemic activity against human MOLM-14 cells at 4.3 uM in presence of bone-marrow derived stromal cell-conditioned medium; assay type: functional, cell-based
MOLM-14 [33] = assay: Potentiation of olaparid-induced antileukemic activity against human MOLM-14 cells at 4.3 uM in presence of bone-marrow derived stromal cell-conditioned medium; assay type: functional, cell-based
MOLM-14 [34] = assay: Potentiation of quizartinib-induced antileukemic activity against human MOLM-14 cells at 4.3 uM in presence of bone-marrow derived stromal cell-conditioned medium; assay type: functional, cell-based
MOLM-14 [35] = assay: Potentiation of sunitinib-induced antileukemic activity against human MOLM-14 cells at 4.3 uM in presence of bone-marrow derived stromal cell-conditioned medium; assay type: functional, cell-based
MOLM-14 [36] = assay: Potentiation of tipifarnib-induced antileukemic activity against human MOLM-14 cells at 4.3 uM in presence of bone-marrow derived stromal cell-conditioned medium; assay type: functional, cell-based
MOLM-14 [37] = assay: Potentiation of trametinib-induced antileukemic activity against human MOLM-14 cells at 4.3 uM in presence of bone-marrow derived stromal cell-conditioned medium; assay type: functional, cell-based
MOLM-14 [38] = assay: Potentiation of vermurafenib-induced antileukemic activity against human MOLM-14 cells at 4.3 uM in presence of bone-marrow derived stromal cell-conditioned medium; assay type: functional, cell-based
MOLM-14 [39] = assay: Potentiation of volasertib-induced antileukemic activity against human MOLM-14 cells at 4.3 uM in presence of bone-marrow derived stromal cell-conditioned medium; assay type: functional, cell-based
MOLM-14 [40] = assay: Potentiation of vorinostat-induced antileukemic activity against human MOLM-14 cells at 4.3 uM in presence of bone-marrow derived stromal cell-conditioned medium; assay type: functional, cell-based

Bromodomain-containing protein 2, sequence (P25440 whole entry, looked up, the tested form may be a part): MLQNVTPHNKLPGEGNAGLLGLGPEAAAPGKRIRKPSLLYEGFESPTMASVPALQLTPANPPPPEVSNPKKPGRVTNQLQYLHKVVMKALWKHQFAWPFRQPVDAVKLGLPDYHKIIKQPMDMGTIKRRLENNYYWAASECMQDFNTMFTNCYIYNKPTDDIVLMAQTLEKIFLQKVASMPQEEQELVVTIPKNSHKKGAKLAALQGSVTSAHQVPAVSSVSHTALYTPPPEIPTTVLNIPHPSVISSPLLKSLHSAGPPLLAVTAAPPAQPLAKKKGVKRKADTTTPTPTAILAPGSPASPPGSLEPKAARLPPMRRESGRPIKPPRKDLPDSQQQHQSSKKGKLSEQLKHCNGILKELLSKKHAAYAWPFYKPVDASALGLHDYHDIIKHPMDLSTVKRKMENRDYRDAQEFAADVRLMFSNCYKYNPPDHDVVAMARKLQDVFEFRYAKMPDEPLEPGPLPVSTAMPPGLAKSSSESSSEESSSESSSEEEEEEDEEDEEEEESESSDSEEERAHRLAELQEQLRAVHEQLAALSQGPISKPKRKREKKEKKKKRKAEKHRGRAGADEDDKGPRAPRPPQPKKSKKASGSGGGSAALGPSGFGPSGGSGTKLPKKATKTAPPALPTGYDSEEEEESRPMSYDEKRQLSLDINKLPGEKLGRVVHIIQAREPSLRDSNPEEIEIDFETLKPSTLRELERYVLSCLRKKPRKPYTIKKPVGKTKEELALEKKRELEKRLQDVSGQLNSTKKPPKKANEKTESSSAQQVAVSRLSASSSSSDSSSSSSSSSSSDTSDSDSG

CC(=O)N1CCc2c(sc3nc(SCC(=O)Nc4cccnc4C)n(Cc4ccco4)c(=O)c23)C1
active: Activity (MOLM-14 [2]) Dose-Dependent Effect
37%: inhibition [1]
inactive: Activity [3] | Activity (CCRF-CEM [4]) | Activity (CCRF-CEM [5]) | Activity (CCRF-CEM [6]) | Activity (CCRF-CEM [7]) | Activity (CCRF-CEM [8]) | Activity (CCRF-CEM [9]) | Activity (CCRF-CEM [10]) | Activity (CCRF-CEM [11]) | Activity (CCRF-CEM [12]) | Activity (U-937 [13]) | Activity (U-937 [14]) | Activity (U-937 [15]) | Activity (U-937 [16]) | Activity (U-937 [17]) | Activity (U-937 [18]) | Activity (U-937 [19]) | Activity (U-937 [20]) | Activity (U-937 [21]) | Activity (U-937 [22]) | Activity (U-937 [23]) | Activity (U-937 [24]) | Activity (U-937 [25]) | Activity (MOLM-14 [26]) | Activity (MOLM-14 [27]) | Activity (MOLM-14 [28]) | Activity (MOLM-14 [29]) | Activity (MOLM-14 [30]) | Activity (MOLM-14 [31]) | Activity (MOLM-14 [32]) | Activity (MOLM-14 [33]) | Activity (MOLM-14 [34]) | Activity (MOLM-14 [35]) | Activity (MOLM-14 [36]) | Activity (MOLM-14 [37]) | Activity (MOLM-14 [38]) | Activity (MOLM-14 [39]) | Activity (MOLM-14 [40])
